Measured values taken from patent US7803764B2, “Amphipathic glycopeptides” (The Arizona Board of Regents on Behalf of the University of …, priority 2004, dated 2010).
“Also recorded” adds a separate entry of the source.

Key:
[1] = helicity by circular dichroism; format: physicochemical
Experimental: Circular Dichroism. All of the circular dichroism experiments were carried out on Aviv Associates model 60DS using an Endcal Model RTE4DD water circulator as a temperature-control vehicle. The instrument was calibrated by using d-10-camphorsulphonic acid. The spectra were recorded between 200 and 250 nm by using the continuous mode with a 1.5 nm bandwidth, a three second response and a scan step of 0.5 nm in a cell with a path length of 0.1 cm. Three or five scans were accumulated and averaged for each spectrum. Glycopeptide stock solutions were prepared by weighing the required amount, using Cahn/Ventron Instruments Model 21 automatic analytical electrobalance, to make 1 mL of a 0.5-1.0 mM solution and the pH was adjusted to the desired value. Samples were prepared by diluting the stock solution to 70-80 μM. All observed spectra were baseline-subtracted and smoothed by adjacent average of 5 points using Microcal Origin Ver. 5.0 software (Microcal Software Inc, USA). The molar ellipticities were determined using the formula [θ]=[θ]obs·(MRW)/10·l·C, where [θ]obs observed ellipticity in millidegrees, MRW is the mean residue weight, l is the cell path length in centimeters and C is the glycopeptide concentration in mg/mL. The percent α-helicity was determined by using the formula % helix=[θ]n→π*/−40,000 (1−2.5/n)·100, where n represents the number of amide bonds (including the C-terminal amide) in the glycopeptide and [θ]n→π** is molar ellipticity of n→π* transition band at 222 nm.^55
Conformational Analysis by CD. Circular dichroism (CD) is a powerful and simple tool for identifying secondary structure in both peptides and proteins.^64 All the peptides were subjected to CD analysis in H2O, TFE-H2O mixtures, SDS micelles and phospholipid bicelles. In H2O, a negative band near 200 nm is observed that arises from the π→π* electronic transition and is typical of random coil peptides. […] This behavior is explained as nascent helices.^65 In these nascent helices, helix CD signals could be induced by the addition of TFE.^66 All the glycopeptides gave an increased helix CD signal in TFE. The percentage of helicity increases as TFE concentration increases, but reached a maximum at 30% TFE. The increase in helicity in TFE can be attributed to decreased competition by H2O for hydrogen bonding to the backbone amides. […] In the presence of SDS micelles and anionic bicelles, the band at 200 nm underwent a red shift (higher value) and an additional shoulder appears around 222 nm as a result of the n→π* transition. […] The negative maxima at 222 nm (n→π* transition band) is used to calculate the helical content of polypeptides and proteins. The accepted value for a peptide that is 100% helical is approximately −35,000. It was observed that changes in amplitude of the bands up to 30% depend on length of helix.^67 The amplitude increases as α-helical chain length increases. Therefore, one has to consider the importance of chain-length dependence of the α-helix CD in the quantitative treatment of helix content in proteins and polypeptides. The percentage of helicity is independent of SDS concentration and pH (data not shown). In the presence of zwitterionic bicelles all of the glycopeptides yielded CD spectra similar to that observed in H2O, but anionic bicelles forced them to become more helical. The intensities of the [θ]π→π* band and the [θ]n→π* band are expected to be almost equal for a perfect α-helical peptide. […] A modest blue shift and reduced intensity for the [θ]n→π* transition bands are observed for all the glycopeptides in TFE. […] The glycopeptides 9 (Pro/Glc) and 12 (Pro/Lactose), which differ only by the sugar moiety attached, adopt perfect helices in the presence of SDS micelles and in anionic bicelles. The disaccharide increased the percentage of helicity in all the solvents, relative to the monosaccharide. […] It is remarkable to note that a single amino acid mutation at position 6 produced profound changes in the CD spectra. […]

[2] = target: δ opioid receptor (Homo sapiens, UniProt P41143); assay: opioid receptor binding, δ receptor
δ opioid receptor, sequence (P41143 whole entry): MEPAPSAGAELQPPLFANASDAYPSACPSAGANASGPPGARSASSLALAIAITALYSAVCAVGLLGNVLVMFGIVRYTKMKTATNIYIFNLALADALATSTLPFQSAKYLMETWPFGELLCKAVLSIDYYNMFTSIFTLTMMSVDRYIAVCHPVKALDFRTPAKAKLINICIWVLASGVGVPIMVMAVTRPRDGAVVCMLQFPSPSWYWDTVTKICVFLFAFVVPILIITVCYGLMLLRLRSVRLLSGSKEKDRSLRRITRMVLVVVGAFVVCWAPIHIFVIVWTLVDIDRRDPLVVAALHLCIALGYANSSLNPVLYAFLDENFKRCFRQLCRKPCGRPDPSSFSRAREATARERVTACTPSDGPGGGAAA

[3] = in vivo antinociception after i.c.v. administration; set-up: species or system mice; settings: for A50 i.c.v.: antinociception
[4] = water solubility; settings: H2O
[5] = target: μ opioid receptor (Homo sapiens, UniProt P35372); assay: opioid receptor binding, μ receptor
μ opioid receptor, sequence (P35372 whole entry): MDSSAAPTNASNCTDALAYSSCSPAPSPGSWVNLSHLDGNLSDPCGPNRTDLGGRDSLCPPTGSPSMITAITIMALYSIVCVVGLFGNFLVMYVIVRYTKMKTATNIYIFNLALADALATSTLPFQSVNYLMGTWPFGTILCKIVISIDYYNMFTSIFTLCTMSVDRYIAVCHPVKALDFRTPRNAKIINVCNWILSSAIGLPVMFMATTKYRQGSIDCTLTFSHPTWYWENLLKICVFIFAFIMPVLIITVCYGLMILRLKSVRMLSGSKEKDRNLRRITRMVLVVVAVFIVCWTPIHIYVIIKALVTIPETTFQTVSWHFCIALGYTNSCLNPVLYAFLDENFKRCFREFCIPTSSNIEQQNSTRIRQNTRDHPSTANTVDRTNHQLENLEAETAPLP

[6] = helicity by NMR αCH chemical shift index; format: physicochemical
Experimental: NMR Spectroscopy. All NMR spectra were recorded on a Bruker DRX600 600 MHz spectrometer. Glycopeptide concentration for the NMR experiments varied from 2-3 mM. The glycopeptides were prepared in TFE-water solution by dissolving the peptide in 0.6 ml solution of a premixed 30% TFE-water mixture. The micelle samples were prepared by dissolving the glycopeptide and 100 equivalent of perdeuterated SDS in 0.6 ml of H2O/D2O (9:1 ratio by volume). Bicelles were produced from deuterated phospholipids. The zwitterionic bicelles were made by mixing the short chain phospholipid dihexanoyl-sn-glycero-3-phosphatidylcholine-d22 (DHPC) and the long chain 1,2-dimyristoyl-sn-glycero-3-phosphatidylcholine-d54 (DMPC) in the molar ratio of 2:1 in H2O. The […] were prepared by substituting 10 mol % of 1,2-dimyristoyl-sn-glycero-3-phospho-1-glycerol-d54 (DMPG) for DMPC. The glycopeptide to bicelle ratio was 1:25. After the glycopeptide was added to the bicelle solution, the system was submitted to a series o f three freeze/thaw/slight vortex shaking cycles. The pH of the each sample was adjusted to 4.5 by using DCl or NaOD as necessary. TSP (3-(trimethylsilyl)-d4-propionic acid) was added as an internal standard. The experiments in F3CCD2OD/H2O mixtures were at 293 K and for experiments in micelles/bicelles were at 298 or 311 K. Two-dimensional double quantum filtered correlation (DQF-COSY), rotating-frame Overhauser enhancement^56 (ROESY), Nuclear Overhauser enhancement^57 (NOESY), and total correlation spectra^58 (TOCSY) were acquired using standard pulse sequences and processed using XWINNMR (Bruker Inc) and FELIX2000 (Accelrys Inc, San Diego, Calif.), Mixing times for TOCSY spectra were either 80 or 100 ms. Mixing times for ROESY spectra were 150 or 250 ms, and for NOESY spectra were 200 or 300 ms. All experiments were 750 increments in t1, 16/32/64 scans each, 1.5 s relaxation delay, size 2 or 4K, and the spectral processing was with shifted sine bell window multiplications in both dimensions.
αCH Chemical Shift Index. […] At this point there is no accepted random coil αCH values for glycosylated serine, CSI values for this position are uncertain. The conformational shift values for all solvents were obtained using the random coil values described by Wright and co-workers.^72 Although, these reference shifts were obtained at pH=5.0 at 4.2° C., they appear to be very insensitive to the conditions, as very small deviations (±0.04) were observed when random coil values are obtained at pH=7.0 at 35° C. by Wuthrich and co-workers.^68 The quantification of secondary structure based on αCH chemical shifts is neglected in the literature because various contributions cannot be strictly accounted for, such as electrostatic effects, ring current shifts, and other magnetic anisotropies. However, it is possible to make qualitative comparison of helical content between closely related (glyco)peptides. Since the 3rd generation glycopeptides differ by only one amino acid at position 6, the helical content was obtained based on the αCH chemical shift values (Table 3). The method described by Gierasch and co-workers^69a was used. First, the average conformational shift was calculated for each glycopeptide by adding all upfield shifts in the helical regions and dividing by the total number of peptide bonds. Then, to obtain the overall helical content for each glycopeptide, the average conformational shift was divided by 0.35 ppm, which was assigned for 100% helicity. Since, there are no random coil values available for β-Alanine and glycosylated serine residues, they were not included in the calculation. The helicogenic Aib residue lacks an α-proton, and there was no correction included in the calculation for the helicity provided by Aib residue. The helical content obtained by this method correlated with the helical content obtained by CD. […]

[7] = blood-brain barrier uptake / penetration; settings: mice
[8] = Plasmon-waveguide resonance (PWR) binding to lipid bilayer; settings: egg PC bilayer, 25° C., read-out: dissociation constant KD for lipid bilayer
Experimental: Plasmon-waveguide resonance (PWR) spectroscopy. The PWR instrument used for these experiments was Aviv Beta prototype version device obtained from Proterion Corp. (Piscataway, N.J.) having a spectral resolution of 1 millidegree. Self-assembled so lid-supported lipid membranes were prepared according to the method used for the formation of freely suspended lipid bilayers.^62 This involves spreading a small amount of lipid solution across an orifice in a Teflon sheet that separates the thin dielectric film (SiO2) from the aqueous phase. The hydrophilic surface of hydrated SiO2 attracts the polar groups of the lipid molecules, thus inducing an initial orientation of the lipid molecules, with the hydrocarbon chains pointing toward the droplet of excess lipid solution. The next steps of bilayer formation, induced by adding aqueous buffer to the sample compartment of the PWR cell, involve a thinning process and the formation of a plateau-Gibbs border of lipid solution that anchors the membrane to the Teflon spacer. In the present experiments, the lipid films were formed from a solution containing 5 mg/ml egg phosphatidylcholine (PC) in squalene/butanol/methanol (0.05:9.5:0.5, v/v). […] Aliquots of the glycosylated peptides, dissolved in deionized water, were injected stepwise in the PWR cell sample and the signal monitored until equilibrium was reached (PWR signal steady). […]

[9] = solvent Bicelle A (anionic bicelles)

Row | Compound | % α-helicity ([1]; CD, SDS micelles (30 mM), pH = 7.0, 18° C.) [%] | IC50 [2] [nM] | receptor selectivity (in words) ([2]; δ versus μ, receptor binding assays) | potency relative to morphine ([3]; i.c.v. administration, more potent than morphine) | A50 value after i.c.v. administration ([3]; i.c.v., mice) [pmoles per mouse] | A50 i.c.v. ([3]; i.c.v., mice) [nmol] | water solubility [4] | IC50 [5] [nM] | % α-helicity by CD [1, 9] [%] | % α-helicity by CD ([1]; solvent H2O) [%] | % α-helicity by CD ([1]; solvent SDS micelles) [%] | % α-helicity by CD ([1]; solvent TFE) [%] | % α-helicity by NMR ([6]; solvent Bicelle A) [%] | % α-helicity by NMR ([6]; solvent H2O) [%] | % α-helicity by NMR ([6]; solvent SDS micelles) [%] | % α-helicity by NMR ([6]; solvent TFE) [%] | BBB uptake [7] | blood brain barrier penetration (in words) [7] | Kd [8] [nM]
1 | CC(C)C[C@H](NC(=O)[C@H](C)NC(=O)[C@H](CC(N)=O)NC(=O)[C@H](Cc1ccccc1)NC(=O)[C@H](Cc1c[nH]c2ccccc12)NC(=O)[C@H](CCCCN)NC(=O)[C@H](CO[C@@H]1O[C@H](CO)[C@@H](O)[C@H](O)[C@H]1O)NC(=O)[C@H](C)NC(=O)[C@H](CC(C)C)NC(=O)[C@H](CCC(=O)O)NC(=O)CNC(=O)[C@H](CC(C)C)NC(=O)[C@H](Cc1ccccc1)NC(=O)CNC(=O)[C@H](NC(=O)[C@@H](N)Cc1ccc(O)cc1)[C@H](C)O)C(=O)N[C@@H](CCC(=O)O)C(=O)N[C@@H](CO[C@@H]1O[C@H](CO)[C@@H](O)[C@H](O)[C@H]1O)C(N)=O (relative stereo) [Glycopeptide 2, YtGFLGELAS*KWFNALES*] | 67 | 9.5 | somewhat δ-selective | roughly 18 times | 120 | 0.27 | appreciable water solubility; also recorded: significant solubility in water | 144 | – | – | – | – | – | – | – | – | – | – | –
2 | CC(C)C[C@H](NC(=O)[C@H](CO[C@@H]1O[C@H](CO)[C@@H](O)[C@H](O)[C@H]1O)NC(=O)[C@H](CCCCN)NC(=O)[C@H](CC(C)C)NC(=O)[C@H](C)NC(=O)[C@H](CCCCN)NC(=O)[C@H](CCC(=O)O)NC(=O)C(C)(C)NC(=O)[C@H](CC(C)C)NC(=O)[C@H](CC(N)=O)NC(=O)[C@@H]1CCCN1C(=O)[C@H](CC(C)C)NC(=O)[C@H](Cc1ccccc1)NC(=O)CNC(=O)[C@H](NC(=O)[C@@H](N)Cc1ccc(O)cc1)[C@H](C)O)C(N)=O (relative stereo) [Glycopeptide 9, YtGFLPNLBEKALKS*L] | – | 6.15 | – | – | – | 0.030 | – | 90.8 | 25 | >1 | 24 | 18 | 44 | 20 | 46 | 30 | 0.390 microliters per min per gram of cortex | efficiently cross the blood brain barrier; also recorded: much better BBB penetration rates; also recorded: best BBB penetration | 7 to 8
3 | CC(C)C[C@H](NC(=O)[C@H](CO[C@@H]1O[C@H](CO)[C@@H](O)[C@H](O)[C@H]1O)NC(=O)[C@H](CCCCN)NC(=O)[C@H](CC(C)C)NC(=O)[C@H](C)NC(=O)[C@H](CCCCN)NC(=O)[C@H](CCC(=O)O)NC(=O)C(C)(C)NC(=O)[C@H](CC(C)C)NC(=O)[C@H](CC(N)=O)NC(=O)CNC(=O)CNC(=O)[C@H](CC(C)C)NC(=O)[C@H](Cc1ccccc1)NC(=O)CNC(=O)[C@H](NC(=O)[C@@H](N)Cc1ccc(O)cc1)[C@H](C)O)C(N)=O (relative stereo) [Glycopeptide 11, YtGFLGGNLBEKALKS*L] | – | 32.5 | – | – | – | 0.030 | – | 53 | 17 | >1 | 17 | 18 | – | 19 | 39 | 28 | 0.002 microliters per min per gram of cortex | did not; also recorded: low BBB penetration rates | 30000
